Each compound was assayed against cGMP-specific 3',5'-cyclic phosphodiesterase PDE V (Sus scrofa) (assay: Inhibitory potency against pig aortic PDE V.).

Question: How did the IC50 turn out when `COC(=O)c1ccccc1NC(=O)c1ccc(OC)c(OC2CCCC2)c1` [2-(3-Cyclopentyloxy-4-methoxy-benzoylamino)-benzoic acid methyl ester] was run?
Answer: 5.5 µM

Question: With `COc1ccc(C(=O)Nc2ccccc2F)cc1OC1CCCC1` [3-(cyclopentyloxy)-N-(2-fluorophenyl)-4-methoxybenzamide] as the compound, how does the IC50 read?
Answer: > 1000 µM

Question: Which IC50 does the source give for `COc1ccc(C(=O)Nc2ccccc2SC)cc1OC1CCCC1` [3-Cyclopentyloxy-4-methoxy-N-(2-methylsulfanyl-phenyl)-benzamide] here?
Answer: > 200 µM

Question: For `COc1ccc(C(=O)Nc2ccccc2C(F)(F)F)cc1OC1CCCC1` [3-Cyclopentyloxy-4-methoxy-N-(2-trifluoromethyl-phenyl)-benzamide], which IC50 is on record?
Answer: > 1000 µM

Question: For `COc1ccc(C(=O)Nc2ccccc2C)cc1OC1CCCC1` [3-Cyclopentyloxy-4-methoxy-N-o-tolyl-benzamide], which IC50 is on record?
Answer: > 1000 µM

Question: For `COc1ccc(C(=O)Nc2ccc(C)cc2)cc1OC1CCCC1` [3-Cyclopentyloxy-4-methoxy-N-p-tolyl-benzamide], which IC50 is on record?
Answer: > 200 µM

Question: `COc1ccc(C(=O)Nc2cccc(Cl)c2Cl)cc1OC1CCCC1` [3-Cyclopentyloxy-N-(2,3-dichloro-phenyl)-4-methoxy-benzamide] was tested. Which IC50 did it give?
Answer: > 200 µM

Question: How did the IC50 turn out when `COc1ccc(C(=O)Nc2c(F)cccc2F)cc1OC1CCCC1` [3-Cyclopentyloxy-N-(2,6-difluoro-phenyl)-4-methoxy-benzamide] was run?
Answer: > 1000 µM

Question: How did the IC50 turn out when `COc1ccc(C(=O)Nc2ccccc2O)cc1OC1CCCC1` [3-Cyclopentyloxy-N-(2-hydroxy-phenyl)-4-methoxy-benzamide] was run?
Answer: 175 µM

Question: For `COc1ccc(C(=O)Nc2ccc(F)cc2)cc1OC1CCCC1` [3-Cyclopentyloxy-N-(4-fluoro-phenyl)-4-methoxy-benzamide], which IC50 is on record?
Answer: > 1000 µM

Question: How did the IC50 turn out when `COc1ccc(C(=O)Nc2ccccc2C(=O)c2ccccc2)cc1OC1CCCC1` [N-(2-Benzoyl-phenyl)-3-cyclopentyloxy-4-methoxy-benzamide] was run?
Answer: 2.5 µM

Question: Which IC50 does the source give for `COc1ccc(C(=O)Nc2ccccc2Br)cc1OC1CCCC1` [N-(2-Bromo-phenyl)-3-cyclopentyloxy-4-methoxy-benzamide] here?
Answer: > 1000 µM

Question: How did the IC50 turn out when `COc1ccc(C(=O)Nc2c(F)cccc2Cl)cc1OC1CCCC1` [N-(2-Chloro-6-fluoro-phenyl)-3-cyclopentyloxy-4-methoxy-benzamide] was run?
Answer: > 1000 µM

Question: For `COc1ccc(C(=O)Nc2c(C)cccc2Cl)cc1OC1CCCC1` [N-(2-Chloro-6-methyl-phenyl)-3-cyclopentyloxy-4-methoxy-benzamide], which IC50 is on record?
Answer: > 1000 µM

Question: For `COc1ccc(C(=O)Nc2ccccc2Cl)cc1OC1CCCC1` [N-(2-Chloro-phenyl)-3-cyclopentyloxy-4-methoxy-benzamide], which IC50 is on record?
Answer: > 200 µM

Question: `COc1ccc(C(=O)Nc2cccc(Cl)c2)cc1OC1CCCC1` [N-(3-Chloro-phenyl)-3-cyclopentyloxy-4-methoxy-benzamide] was tested. Which IC50 did it give?
Answer: > 40 µM

Question: `COc1ccc(C(=O)Nc2ccc(Cl)cc2)cc1OC1CCCC1` [N-(4-Chloro-phenyl)-3-cyclopentyloxy-4-methoxy-benzamide] was tested. Which IC50 did it give?
Answer: > 1000 µM
